The text below walks through data of US7150880B2, “Compositions containing creatine and creatinine and a methyl xanthine” (The Original Creatine Patent Co. Ltd., priority 1996, dated 2006).

Where two headings read alike, the source gives them in different places.

Data set [1] in a line: Flavored drink of creatine plus creatinine formed by heating: stability at 22° C. and solubility at 3° C. (Example 4). The settings on record: Example 4 drink at 3° C. The format is physicochemical. The protocol: The solution was cooled to room temperature.
In addition, the solution contained 15 percent Aloe Vera juice, flavoring and dextrose to sweeten.
Solutions from steps 1 and 2 were then mixed together and heated at 90° C. for 30 minutes to sterilize the mixture and then placed in a glass or plastic bottle and stored at 22° C.

Data set [2] can be described thus: Mole:mole creatinine to creatine ratios required for stability at 2, 22 and 39° C. over pH 3.8 to 8.25 (Example 5). The settings on record: for time to reach stability: starting ratios close to equilibrium.
Description: Using solutions from 1. above the following solutions were prepared at room temperature:
Triplicate samples were prepared.
The samples were capped and heat sterilized for 30 minutes at 90° C.
One set of samples was stored at 2° C., another set at 22° C. and the final set stored at 39°.
Experiment in data set [3]: not given
This is another data set of the same source.

For data set [4] the following is noted: human body; cited from earlier work.
For data set [5] the following is noted: Vandeberg et al 1996 J. Appl. Physiology 80; cited from earlier work.
For data set [6] the following is noted: ingestion of 20 to 30 g per day for several days; cited from earlier work.

As for `CN(CC(=O)O)C(=N)N` [creatine], in data set [1], the precipitation in refrigerator result was “did not precipitate out”. For the setting “solution of low pH, composed initially of just creatine, 22° C. (FIG. 2)”, the “time to reach equilibrium” value is listed as “up to 8 weeks”. For the same compound, the “time to reach stability” value (starting with creatine and no creatinine, 22° C.) is given as not below 4 weeks; the “time to reach stability” value in data set [2] (incubated at 39° C.) was less than 5 weeks; the “time to reach stability” value in data set [2] (incubated between 2 and 39° C.) was not above 6 weeks. Further, in data set [2] (39° C., mean (SD)), the “mean change in creatine concentration between weeks 5 and 6” value is given as “+0.76 (SD 1.3) mmol/l”. In addition, the “percentage change from weeks 5 and 6” value in data set [2] (39° C., mean (SD)) is given as 3.1 (3.8) %. In data set [3] (pH's 3 and 4, after 30 minutes at 90° C., 22° C.), the “period remaining creatine stable after heating” value is “at least 95 days”. The “stability of creatine with sufficient creatinine” value in data set [3] (pH's 5, 6 and 7, creatinine:creatine monohydrate 1:1, heated 30 minutes at 90° C.) was “exceptionally stable”. For the same compound, in data set [3] (pH's 6 and 7, 90° C. 30 minutes, creatinine 1:1 w/w), the “loss of creatine during the heating period” value was “no loss of creatine”.

As for `Cn1c(=O)c2c(ncn2C)n(C)c1=O` [caffeine], the “half life of ingested caffeine” value in data set [4] is 5 to 6 h. Moreover, the “effect on ergogenic action of muscle creatine loading” value in data set [5] is listed as “counteracted the ergogenic action of muscle creatine loading”.

In the case of `CN(CC(=O)O)C(=N)N.O` [creatine monohydrate], the “increase in human skeletal muscle total creatine content” value in data set [6] was “greater than 20%”. Further, the “increase between weeks 5 and 6 as creatine monohydrate” value in data set [2] (39° C.) is listed as 0.113 g per litre.
